According to US20240059710A1, “KRAS G12D Inhibitors” (Jacobio Pharmaceuticals Co., Ltd., priority 2020, published 2024):
Like-named read-outs stand apart in the source and are kept apart here.

What was measured:
[1] = target: T1, GDP-loaded HIS-KRAS (G12D, aa 1-169) (Homo sapiens, UniProt P01116, G12D); test: SOS1 catalyzed nucleotide exchange assay; format: biochemical; settings: SOS1 ExD, TR-FRET, 4 hours at 25° C.
T1 construct: GDP-loaded HIS-KRAS (G12D, aa 1-169)
Method in brief: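 Compound was preincubated 15 min with 1.5 nM GDP-loaded KRAS G12D (final 5 nM GDP). SOS1 ExD (aa 564-1049, 0.5 µM), 80 nM BODIPY FL GTP and anti-His Tb antibody were then added for 4 h at 25 °C. The TR-FRET 515/486 ratio was normalized between DMSO and no-KRAS wells, and IC50 came from 4-parameter fits.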

[2] = target: T2, GppNp-loaded HIS-KRAS (G12D, aa 1-169) / cRAF RBD (Homo sapiens, UniProt P01116, G12D); test: GTP-KRAS and cRAF interaction assay; format: binding; settings: HTRF, 2 hours at 25° C.
T2 construct: GppNp-loaded HIS-KRAS (G12D, aa 1-169)
Method in brief: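 GppNp-loaded KRAS G12D (2.0 nM) preincubated 15 min with compound, then cRAF RBD (35 nM) and HTRF antibodies added for 2 h at 25° C with 100 μM GTP final. Ratios normalized to DMSO and no-KRAS controls; IC50 by 4-parameter fit.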

[3] = test system: AGS cells expressing KRAS G12D; test: Phospho-ERK1/2(THR202/TYR204) HTRF assay; format: cell-based; settings: 2 hours incubation, read-out: AGS p-ERK IC50
Method in brief: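 Cells seeded 40,000/well, incubated overnight, then treated with compound in F12K with 0.1% FBS for 2 h at 37 °C. Lysates assayed for phospho-ERK1/2 by HTRF after 4 h at 25 °C; IC50 from 4-parameter logistic fit.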

AGS = test: Cell growth inhibition assay (AGS); format: cell-based; settings: 6 days incubation, CellTiter-Glo
Method in brief: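 AGS cells in F12K/10% FBS plated at 500 cells/well, attached overnight, then exposed to compounds for 6 days at 37° C./5% CO2. Viability by CellTiter-Glo luminescence; IC50 from 4-parameter logistic fit.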

AsPC-1 = test: Cell growth inhibition assay (AsPC-1); format: cell-based; settings: AsPC-1, 6 days incubation, CellTiter-Glo
Method in brief: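 AsPC-1 cells seeded at 1000 cells/well in RPMI-1640 with 10% FBS, attached overnight, then exposed to compound dilutions for 6 days at 37 °C/5% CO2. Viability read by CellTiter-Glo luminescence; IC50 from a 4-parameter logistic fit.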

T1 sequence (P01116 1-169 isoform P01116-2 G12D): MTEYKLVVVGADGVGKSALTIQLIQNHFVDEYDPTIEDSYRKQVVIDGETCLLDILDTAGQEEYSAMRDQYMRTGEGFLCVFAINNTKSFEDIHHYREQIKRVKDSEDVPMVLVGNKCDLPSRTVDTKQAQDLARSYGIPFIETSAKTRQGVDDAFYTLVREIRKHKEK
T2 sequence (P01116 1-169 isoform P01116-2 G12D): as above

Row | SMILES | IC50 [1] | IC50 [2] | IC50 ([3]; Homo sapiens) | IC50 (AGS; Homo sapiens, 144 h) | IC50 (AsPC-1; Homo sapiens, ASPC1, 144 h) | IC50 [3] | IC50 (AGS) | IC50 (AsPC-1)
1 | C#Cc1cccc2cc(O)cc(-c3ccc4c(N5CC6CCC(C5)N6)nc(OC[C@@]56CCCN5C[C@H](F)C6)nc4c3F)c12 [Compound 73] | 3.02 nM | 37 nM | 0.757 nM | 7 nM | 42 nM | – | – | –
2 | C#Cc1cccc2cc(O)cc(-c3c(C(F)(F)F)cc4c(N5CC6CCC(C5)N6)nc(OCC5(CN6CCOCC6)CC5)nc4c3F)c12 (single isomer, unassigned) [Compound 98A] | 219 nM | 4260 nM | – | – | – | 1830 nM | 319 nM | 1440 nM
3 | C#Cc1cccc2cc(O)cc(-c3c(CC)cc4c(N5CC6CCC(C5)N6)nc(OCC5(CN6CCOCC6)CC5)nc4c3F)c12 [Compound 49] | 3.51 nM | 26.3 nM | 16.8 nM | 10.7 nM | 88 nM | – | – | –
4 | C#Cc1cccc2cc(O)cc(-c3c(C)cc4c(N5CC6CCC(C5)N6)nc(OCC5(CN6CCOCC6)CC5)nc4c3F)c12 [Compound 40] | 27.7 nM | 74.3 nM | 3.72 nM | 15.4 nM | 55.5 nM | – | – | –
5 | C#Cc1cccc2cc(O)cc(-c3cc4nc(OCC5(CN6CCOCC6)CC5)nc(N5CC6CCC(C5)N6)c4cc3C)c12 [Compound 118] | 19.2 nM | 165 nM | 64 nM | 31.1 nM | 145 nM | – | – | –
6 | C#Cc1cccc2cc(O)cc(-c3c(F)cc4c(N5CC6CCC(C5)N6)nc(OCC5(CN6CCOCC6)CC5)nc4c3F)c12 (single isomer, unassigned) [Compound 41B] | 6.9 nM | 50.4 nM | – | – | – | 1.01 nM | 0.671 nM | 3.84 nM
7 | N#Cc1c(N)sc2c(F)ccc(-c3ccc4c(N5CC6CCC(C5)N6)nc(OCC5(CN6CCOCC6)CC5)nc4c3F)c12 [Compound 95] | 3.28 nM | 388 nM | > 200 nM | 52.7 nM | 572 nM | – | – | –
8 | C#Cc1cccc2cc(O)cc(-c3c(F)cc4c(N5CC6CCC(C5)N6)nc(OCC5(CN6CCS(=O)(=O)CC6)CC5)nc4c3F)c12 [Compound 83] | 18 nM | 3150 nM | 131 nM | 273 nM | 5090 nM | – | – | –
9 | C#Cc1cccc2cc(O)cc(-c3c(F)cc4c(N5CC6CCC(C5)N6)nc(OCC5(CN6CCOCC6)CC5)nc4c3C)c12 [Compound 101] | 1.59 nM | 277 nM | 125 nM | 39.6 nM | 113 nM | – | – | –
10 | C#Cc1c(F)ccc2cc(O)cc(-c3ccc4c(N5CC6CCC(C5)N6)nc(OCC5(CN6CCOCC6)CC5)nc4c3F)c12 [Compound 48] | 7.14 nM | 17.7 nM | 0.794 nM | 1.14 nM | 19.9 nM | – | – | –
11 | C#Cc1cccc2cc(O)cc(-c3c(CO)cc4c(N5CC6CCC(C5)N6)nc(OCC5(CN6CCOCC6)CC5)nc4c3F)c12 [Compound 102] | 6.42 nM | 74.2 nM | 40.4 nM | 82.5 nM | 1940 nM | – | – | –
12 | C#Cc1cccc2cc(O)cc(-c3cc4nc(OC[C@@]56CCCN5C[C@H](F)C6)nc(N5CC6CCC(C5)N6)c4cc3Cl)c12 [Compound 97] | 7.64 nM | 44.6 nM | 5.22 nM | 45.3 nM | 127 nM | – | – | –
13 | C#Cc1c(F)ccc2cc(O)cc(-c3ccc4c(N5CC6CCC(C5)N6)nc(OCC5(CN6CCCC(F)C6)CC5)nc4c3F)c12 (stereo not shown) [Compound 74] | 10 nM | 39.8 nM | 12.4 nM | 4.41 nM | 21.3 nM | – | – | –
14 | C#Cc1c(Cl)ccc2cc(O)cc(-c3ccc4c(N5CC6CCC(C5)N6)nc(OCC5(CN6CCOCC6)CC5)nc4c3F)c12 [Compound 127] | 1.18 nM | 15.7 nM | 2.61 nM | 1.82 nM | 24 nM | – | – | –
15 | C#Cc1c(F)ccc2cc(O)cc(-c3ccc4c(N5CC6CCC(C5)N6)nc(OC[C@@]56CCCN5C[C@H](F)C6)nc4c3F)c12 [Compound 67] | 8.77 nM | 20.3 nM | 3.72 nM | 6.92 nM | 34.1 nM | – | – | –
16 | C#Cc1cccc2cc(O)cc(-c3ccc4c(N5CC6CCC(C5)N6)nc(OCC5(CN6CCCCC6)CC5)nc4c3F)c12 [Compound 131] | 9.1 nM | 90.4 nM | 9.86 nM | 13.4 nM | 55 nM | – | – | –
17 | C#Cc1cccc2cc(O)cc(-c3ccc4c(N5CC6CCC(C5)N6)nc(OCC5(CN6CC[C@@H](F)C6)CC5)nc4c3F)c12 [Compound 114] | 12.3 nM | 120 nM | 9.02 nM | 4.47 nM | 18.7 nM | – | – | –
18 | C#Cc1cccc2cc(O)cc(-c3ccc4c(N5CC6CCC(C5)N6)nc(OC[C@@]56CCCN5C[C@H](F)C6)nc4c3Cl)c12 [Compound 81] | 9.49 nM | 225 nM | 13.9 nM | 16.2 nM | 153 nM | – | – | –
19 | C#Cc1cccc2cc(O)cc(-c3cc4nc(OCC5(CN6CCOCC6)CC5)nc(N5CC6CCC(C5)N6)c4cc3C#N)c12 [Compound 61] | 23.5 nM | 284 nM | 32.8 nM | 130 nM | 897 nM | – | – | –
20 | C#Cc1cccc2cc(O)cc(-c3ccc4c(N5CC6CCC(C5)N6)nc(OC[C@@]56CCCN5C[C@H](F)C6)nc4c3)c12 [Compound 96] | 29.5 nM | 146 nM | 34.2 nM | 205 nM | 394 nM | – | – | –
21 | C#Cc1c(F)ccc2cc(O)cc(-c3ccc4c(N5CC6CCC(C5)N6)nc(OCC5(CN6CCC(C(=O)O)CC6)CC5)nc4c3F)c12 [Compound 77] | 5.11 nM | 74.1 nM | 173 nM | 1180 nM | > 10000 nM | – | – | –
22 | C#Cc1cccc2cc(O)cc(-c3cc4nc(OCC5(CN6CCOCC6)CC5)nc(N5CC6CCC(C5)N6)c4cc3F)c12 [Compound 108] | 28.1 nM | 298 nM | 19 nM | 21.9 nM | 63.6 nM | – | – | –
23 | C#Cc1cccc2cc(O)cc(-c3c(C(F)(F)F)cc4c(N5CC6CCC(C5)N6)nc(OCC5(CN6CCOCC6)CC5)nc4c3F)c12 [Compound 98] | 1.29 nM | 20.1 nM | 13.7 nM | 18 nM | 69.7 nM | – | – | –
24 | C#Cc1c(OC)ccc2cc(O)cc(-c3ccc4c(N5CC6CCC(C5)N6)nc(OCC5(CN6CCOCC6)CC5)nc4c3F)c12 [Compound 94] | 5.34 nM | 2520 nM | 28.5 nM | 333 nM | 1150 nM | – | – | –
25 | Oc1cc(Cl)c(C2CC2)c(-c2c(Cl)cc3c(N4CC5CCC(C4)N5)nc(OCC4(CN5CCOCC5)CC4)nc3c2F)c1 [Compound 133] | 7.82 nM | 688 nM | 456 nM | 140 nM | 714 nM | – | – | –
26 | C#Cc1cccc2cc(O)cc(-c3c(Cl)cc4c(N5CC6CCC(C5)N6)nc(OC[C@@]56CCCN5C[C@H](F)C6)nc4c3F)c12 (single isomer, unassigned) [Compound 72B] | 3.3 nM | 23 nM | – | – | – | 1.51 nM | 4.71 nM | 48.7 nM
27 | C#Cc1cccc2cc(O)cc(-c3ccc4c(N5CC6CCC(C5)N6)nc(OCC5(CN6CCO[C@H](C)C6)CC5)nc4c3F)c12 [Compound 68] | 14.4 nM | 131 nM | 4.83 nM | 3.26 nM | 7.8 nM | – | – | –
28 | C#Cc1cccc2cc(O)cc(-c3cc4nc(OCC5(CN6CCOCC6)CC5)nc(N5CC6CCC(C5)N6)c4cc3Cl)c12 [Compound 57] | 45.8 nM | 350 nM | 95.8 nM | 124 nM | 399 nM | – | – | –
29 | C#Cc1c(F)ccc2cc(O)cc(-c3c(C(C)C)cc4c(N5CC6CCC(C5)N6)nc(OCC5(CN6CCOCC6)CC5)nc4c3F)c12 [Compound 106] | 0.332 nM | 1.3 nM | 8.6 nM | 1.8 nM | 12.8 nM | – | – | –
